From US11400106B2, “Methods for inhibiting microbe growth” (priority 2018, dated 2022) come the findings set out here.

The test system of assay [1] is E. coli. Put plainly: Checkerboard microdilution with sodium bicarbonate against E. coli. Type of assay: cell-based, Escherichia coli. The method, then: (§1) In the following experiments, bacterial cells were cultured in 96-well microtiter plates in cation-adjusted Mueller-Hinton Broth (MHB) for 18 h at 37° C. The main strains used were E. coli (K-12 BW25113) (placed in stationary incubator) and S. aureus (Newman Strain) (incubated at 250 r.p.m). Knockout strains (ΔtolcC and ΔychM) were used from the Keio knockout collection (Baba et al., Construction of Escherichia coli K-12 in-frame, single-gene knockout mutants: the Keio collection. Mol Syst Biol 2, 2006 0008, doi:10.1038/msb4100050 (2006)). For MIC determination and checkerboard analyses, Clinical & Laboratory Standards Institute (CLSI) protocol was used. […] DiSC3 loading of S. aureus cells was performed as previously described (Farha et al., Collapsing the proton motive force to identify synergistic combinations against Staphylococcus aureus. Chemistry & biology 20, 1168-1178, doi:10.1016/j.chembiol.2013.07.006 (2013)). CCCP concentration of 20 μM was used. pH adjustments were made by addition of HCl or NaOH. INT assay and ATP bioluminescence assays were performed as previously described (Farha et al., Collapsing the proton motive force to identify synergistic combinations against Staphylococcus aureus. Chemistry & biology 20, 1168-1178, doi:10.1016/j.chembiol.2013.07.006 (2013)). For chemical-genomic studies, the Keio library was grown overnight in cation-adjusted MHB broth, in 384-well plates. From these, treatment plates (25 mM sodium bicarbonate, or a sterile water control) were inoculated and grown for 15 hours at 37° C., in a stationary incubator. Data was normalized according to Mangat et al (Mangat et al., Rank ordering plate data facilitates data visualization and normalization in high-throughput screening. J Biomol Screen 19, 1314-1320, doi:10.1177/1087057114534298 (2014)), with gene products and GO terms mined from EcoCyc. The GFP promoter library (Keseler et al., EcoCyc: fusing model organism databases with systems biology. Nucleic Acids Res 41, D605-612, doi:10.1093/nar/gks1027 (2013)) was grown for 18 hours at ambient temperature with the same inoculation strategy as with the Keio collection. The analysis pipeline of Zaslaver et al (Zaslaver et al., A comprehensive library of fluorescent transcriptional reporters for Escherichia coli. Nat Methods 3, 623-628, doi:10.1038/nmeth895 (2006)) was used to generate maps of promoter activity, from which lists of promoters with increased or decreased activity were compiled.
(§2) The effect of sodium bicarbonate on the activity of various antibacterial agents was investigated. Clinical isolates of various bacteria were obtained from the American Type Culture Collection (“ATCC”) and the International Health Management Associates (“IHMA”). Fractional inhibitory concentration indices (FICIs) were determined by setting up standard checkerboard broth microdilution assays in 96-well microtiter plates with serially diluted 8 (or 10) concentrations of each drug (sodium bicarbonate and the antibacterial agent). The protocol for checkerboard analyses was based on the CLSI guidelines. Plates were incubated at 37° C. for 18 hours, and optical density was read at 600 nm. At least 3 replicates were done for each query compound.
(§3) The FIC index (FICI) is the sum of the two FICs. Chemical-chemical interactions with ΣFIC of less or equal to 0.5 were deemed synergistic.
(§4) As validation, three of the antibiotic agents were further tested with checkerboard analyses. Checkerboard broth microdilution assays were set up in 96-well microtiter plates with serially diluted 8 (or 10) concentrations of each compound (sodium bicarbonate and the antibiotic). The protocol for checkerboard analyses was based on the CLSI guidelines. Plates were incubated at 37° C. for 18 hours, and optical density was read at 600 nm. At least 3 replicates were done for each query compound.

Assay [2] has as its system E. coli. Put plainly: microbe, parasite or virus in culture. Type of assay: cell-based, Escherichia coli.
Assay [3] has as its system S. aureus. The experiment in a line: microbe, parasite or virus in culture. The note with it: for MIC: Staphylococcus aureus.
In assay [4] the test system is S. aureus. Put plainly: Checkerboard microdilution with sodium bicarbonate against S. aureus. Type of assay: cell-based, Staphylococcus aureus. The method, then:
as §1, §2, §3, §4
For orientation: Broth dilution looks for growth in wells or tubes with falling amounts of substance.

The test system of another assay is Burkhloderia cenocepacia. Put plainly: MIC determination against Burkhloderia cenocepacia. Type of assay: cell-based. How it is done:
(§5) In the following experiments, bacterial cells were cultured in 96-well microtiter plates in cation-adjusted Mueller-Hinton Broth (MHB) for 18 h at 37° C. The main strains used were E. coli (K-12 BW25113) (placed in stationary incubator) and S. aureus (Newman Strain) (incubated at 250 r.p.m). Knockout strains (ΔtolcC and ΔychM) were used from the Keio knockout collection (Baba et al., Construction of Escherichia coli K-12 in-frame, single-gene knockout mutants: the Keio collection. Mol Syst Biol 2, 2006 0008, doi:10.1038/msb4100050 (2006)). For MIC determination and checkerboard analyses, Clinical & Laboratory Standards Institute (CLSI) protocol was used. […] DiSC3 loading of S. aureus cells was performed as previously described (Farha et al., Collapsing the proton motive force to identify synergistic combinations against Staphylococcus aureus. Chemistry & biology 20, 1168-1178, doi:10.1016/j.chembiol.2013.07.006 (2013)). CCCP concentration of 20 μM was used. pH adjustments were made by addition of HCl or NaOH. INT assay and ATP bioluminescence assays were performed as previously described (Farha et al., Collapsing the proton motive force to identify synergistic combinations against Staphylococcus aureus. Chemistry & biology 20, 1168-1178, doi:10.1016/j.chembiol.2013.07.006 (2013)). […]

The subject of a further assay is Klebsiella pneumoniae. The experiment in a line: MIC determination against Klebsiella pneumoniae. Type of assay: cell-based. The method, then: as §1, with “The GFP promoter library (Keseler et al., EcoCyc: fusing model organism databases with systems biology. Nucleic Acids Res 41, D605-612, doi:10.1093/nar/gks1027 (2013)) was grown for 18 hours at ambient temperature with the same inoculation strategy as with the Keio collection. The analysis pipeline of Zaslaver et al (Zaslaver et al., A comprehensive library of fluorescent transcriptional reporters for Escherichia coli. Nat Methods 3, 623-628, doi:10.1038/nmeth895 (2006)) was used to generate maps of promoter activity, from which lists of promoters with increased or decreased activity were compiled.” left out

The next assay deals with Acinetobacter baumannii. Put plainly: MIC determination against Acinetobacter baumannii. Type of assay: cell-based. The note with it: for MIC: Acinetobacter baumannii. How it is done: as §1
In the next assay the test system is Enterococcus faecalis. The experiment in a line: MIC determination against Enterococcus faecalis. Type of assay: cell-based.
The subject of a further assay is Burkhloderia multivorans. The experiment in a line: MIC determination against Burkhloderia multivorans. Type of assay: cell-based. How it is done:
as §5

The subject of the next assay is Pseudomonas aeruginosa. Put plainly: MIC determination against Pseudomonas aeruginosa. Type of assay: cell-based. The method, then: as §1, with “The GFP promoter library (Keseler et al., EcoCyc: fusing model organism databases with systems biology. Nucleic Acids Res 41, D605-612, doi:10.1093/nar/gks1027 (2013)) was grown for 18 hours at ambient temperature with the same inoculation strategy as with the Keio collection. The analysis pipeline of Zaslaver et al (Zaslaver et al., A comprehensive library of fluorescent transcriptional reporters for Escherichia coli. Nat Methods 3, 623-628, doi:10.1038/nmeth895 (2006)) was used to generate maps of promoter activity, from which lists of promoters with increased or decreased activity were compiled.” left out

The text on assay [5]:
PMF is driven in part by a transmembrane gradient where the periplasmic side of the membrane has a greater concentration of protons. Thus, the addition of buffering agents to alter the external pH can have a significant effect on PMF. […] Steps were taken throughout the studies to confirm that bicarbonate supplemented media were at pH 7.4, and adjusted where necessary.

Where [6] appears, read: read-out: MIC, tissue culture media formulated to mimic the natural environment.
Setting [7] is: antibiotic agents, MHB in the absence of sodium bicarbonate.
The mark [8] stands for this setting: antibiotic agents, fold shift in MIC, MHB− vs MHB+.

Read-outs that look alike come from different tables or passages of the source.

Turning to `[H]/N=C(/N)N[C@H]1[C@H](O)[C@@H](O)[C@H](O[C@@H]2O[C@@H](C)[C@](O)(C=O)[C@H]2O[C@@H]2O[C@@H](CO)[C@H](O)[C@@H](O)[C@@H]2NC)[C@@H](N/C(N)=N\[H])[C@@H]1O` [Streptomycin], the “interaction with sodium bicarbonate (checkerboard)” value (“interaction with sodium bicarbonate” below) in the assay with E. coli [1] and with S. aureus [4] was “synergistic interactions” in each case. For the same compound, the “MIC, E. coli, MHB+” value in the assay on E. coli [2] is given as 0.12 μg of antimicrobial agent/mL of buffer. Also, the MIC turned out to be 0.5 µg/mL in the assay with E. coli [2] (Escherichia coli, 18 h, antibiotic agents, MHB in the absence of sodium bicarbonate, read-out: MIC, E. coli, MHB−) and 2 µg/mL with S. aureus [3] (18 h, read-out: MIC, S. aureus, MHB−). In addition, the “MIC, S. aureus, MHB+” value with S. aureus [3] was 0.5 μg of antimicrobial agent/mL of buffer.
Take `N=C(N)c1ccc(OCCCCCOc2ccc(C(=N)N)cc2)cc1` [pentamidine isethionate]: the MIC in the assay on Burkhloderia cenocepacia (read-out: MIC, MHB) is above 200 µg/mL; with Burkhloderia cenocepacia (setting [6]), 12.5 µg/mL; in the assay with Klebsiella pneumoniae (read-out: MIC, MHB) it was above 200 µg/mL; in the assay with Klebsiella pneumoniae (setting [6]), 12.5 µg/mL; with Acinetobacter baumannii (read-out: MIC, MHB) it was 100 µg/mL; in the assay on Acinetobacter baumannii (setting [6]), 12.5 µg/mL. The MIC in the assay on E. coli [2] (Escherichia coli, Mueller Hinton Broth, read-out: MIC, MHB) is 200 µg/mL; with E. coli [2] (Escherichia coli, read-out: MIC, tissue culture media formulated to mimic the natural environment), 1 µg/mL; in the assay on Enterococcus faecalis (read-out: MIC, MHB), 25 µg/mL; with Enterococcus faecalis (setting [6]), 3.1 µg/mL; in the assay on S. aureus [3] (read-out: MIC, MHB) it was 12.5 µg/mL; in the assay with S. aureus [3] (setting [6]) it was below 0.1 µg/mL. The MIC in the assay on Burkhloderia multivorans (read-out: MIC, MHB) was above 200 µg/mL; in the assay with Burkhloderia multivorans (setting [6]), 12.5 µg/mL; with Pseudomonas aeruginosa (read-out: MIC, MHB) it was above 200 µg/mL; in the assay with Pseudomonas aeruginosa (setting [6]), 12.5 µg/mL. Besides, the “interaction with sodium bicarbonate” value with E. coli [1] is recorded as “greatly potentiated”. In the assay with Acinetobacter baumannii (A. baumannii, versus standard media), the “enhanced potency in tissue culture media formulated to mimic the natural environment” value is above 50 fold. Besides, in the assay with E. coli [2] (Escherichia coli), the “MIC, tissue culture media formulated to mimic the natural environment” value was found to be 1.5 µg/mL.
Regarding `O=P([O-])([O-])[O-].[Na+].[Na+].[Na+]` [trisodium phosphate], the “effect on activity of dirithromycin, pH not adjusted” value in assay [5] (pH not adjusted (pH~10)) was “potentiated the activity of dirithromycin”. Further, in assay [5] (pH of the medium adjusted to 7.2), the “effect on activity of dirithromycin, pH adjusted” value is recorded as “loss of synergy”.
In the case of Spiramycin, the “interaction with sodium bicarbonate” value in the assay with E. coli [1] and in the assay with S. aureus [4] was “synergistic interactions” throughout. In the assay on E. coli [2], the “MIC, E. coli, MHB+” value is reported as 64 μg of antimicrobial agent/mL of buffer. The “MIC, E. coli, MHB−” value in the assay with E. coli [2] (setting [7]) is >128 μg of antimicrobial agent/mL of buffer. For the same compound, the “Fold, E. coli” value in the assay with E. coli [2] (setting [8]) stood at 8. Further, in the assay with S. aureus [3] (setting [7]), the “MIC, S. aureus, MHB−” value is listed as 16 μg of antimicrobial agent/mL of buffer. Also, the “MIC, S. aureus, MHB+” value in the assay on S. aureus [3] (antibiotic agents, MHB in the presence of 25 mM sodium bicarbonate) is listed as 0.5 μg of antimicrobial agent/mL of buffer. In addition, in the assay with S. aureus [3] (setting [8]), the “Fold, S. aureus” value was found to be 16.
